Patent US20200317660A1, “Quinazolinone Compound and Application Thereof” (LUOXIN PHARMACEUTICAL (SHANGHAI) CO., LTD., priority 2017, published 2020)
Like-named read-outs stand apart in the source and are kept apart here.

Assays:
[1] = molecular target: T1, PI3Kα (Homo sapiens, UniProt P42336); experiment: In vitro test of enzyme activity (ADP-Glo lipokinase), PI3K alpha; assay type: biochemical; details: 40 μM ATP, 50 μM PIP2:3PS, 120 min
T1 construct: purchased Millipore 14-602-K

[2] = molecular target: T2, PI3Kβ (Homo sapiens, UniProt P42338); experiment: In vitro test of enzyme activity (ADP-Glo lipokinase), PI3K beta; assay type: biochemical; details: 40 μM ATP, 50 μM PIP2:3PS, 120 min
T2 construct: purchased Promega V1751

[3] = molecular target: T3, PI3Kδ (Homo sapiens, UniProt O00329); experiment: In vitro test of enzyme activity (ADP-Glo lipokinase), PI3K delta; assay type: biochemical; details: 40 μM ATP, 50 μM PIP2:3PS, 120 min
T3 construct: purchased Millipore 14-604-K
Procedure: (§1) 1. In Vitro Test of Enzyme Activity
(§2) The lipokinase reaction was carried out under the conditions of a suitable substrate and ATP, followed by two steps to detect the kinase activity with the ADP-Glo™ kit. The first step was terminating the kinase reaction, wherein the remaining ATP was completely removed and only ADP was left; the second step was adding kinase detection reagents to convert ADP to ATP, accompanied by luciferin/luciferase reaction. Finally, the output value of fluorescence value was converted into kinase activity.
(§3) Experimental materials and equipments:
(§4) 2. Kit: ADP-Glo™ Lipokinase and PIP2:3PS Kit (Promega # V1792)
(§5) The kit contains: 1 mM PIP2:3PS, 10× lipid dilution buffer, 1 M magnesium chloride, 10 mM ATP, 10 mM ADP, ADP-Glo reagent, detection buffer and detection substrate.
(§6) 3. Reaction plate: OptiPlate-384, white and transparent (PerkinElmer #6007299).
(§7) 1. 10× reaction buffer: 500 mM HEPES, pH 7.5, 500 mM NaCl, 9 mM MgCl2; BSA: 10% stock solution, homemade.
(§8) 2. Final test system conditions: 1× reaction system: 50 mM HEPES, 50 mM NaCl, 3 mM MgCl2, 0.01% BSA (freshly prepared on the day of the experiment), 1% DMSO (v/v)+/−compound
(§9) 3. Reaction system: 3 μL mixture of the enzyme and the substrate (1:1)+2 μL ATP/MgCl2 mixture+5 μL ADP-Glo reagent+10 μL detection reagent.
(§10) The detailed experimental procedures are as follows:
(§11) 1. Compound dilution: 50 nL 100×compound/DMSO was transferred to the test well plate with Echo. • For PI3Kα, the compound was diluted three-fold from the highest concentration of 0.111 mM for a total of 10 concentrations. • For PI3Kβ/PI3Kδ/PI3Kγ, the compound was three-fold diluted from the highest concentration of 1.11 mM for a total of 10 concentrations.
(§12) (1) The compound to be tested was prepared and 50 nL of 100 plus compound solution or DMSO was added to the corresponding well plate.
(§13) (2) 3.33 plate reaction buffer was prepared.
(§14) (3) 3.33 solution PIP2:3PS was prepared, PIP2:3PS was thawed for at least 1 minute before use.
(§15) (4) 2.5 mM containing 5.25 mM MgCl2 was prepared.
(§16) (5) 3.33 PI3Kα/PI3Kβ/PI3Kδ/PI3Kγ solution was prepared.
(§17) (6) The lipokinase solution and the PIP2:3PS solution were mixed in a volume ratio of 1:1.
(§18) (7) 3.33: lipokinase buffer and PIP2:3PS solution were mixed in a volume ratio of 1:1.
(§19) (8) 3 μL of buffer solution and PIP2:3PS were added to the first and the second columns of the well plate.
(§20) (9) 3 μL of the mixed solution of the enzyme and PIP2:3PS was added to the wells except the first and the second columns, centrifuged for 10 seconds (1000 rpm) and incubated at 23° C. for 20 minutes.
(§21) (10) 2 μL […] was added and well was shaken.
(§22) (11) The well plate was covered and shaken for about 30 s, then the well plate was incubated at 23° C. for 2 hours.
(§23) (12) 5 μL of ADP-Glo reagent containing 10 mM MgCl2 was added.
(§24) (13) The well plate was centrifuged at 1000 rpm for 10 seconds, and the well plate was then covered, shaken for about 30 seconds, and incubated at 23° C. for 60 minutes.
(§25) (14) 10 μL kinase detection reagent was added.
(§26) (15) The well plate was centrifuged at 1000 rpm for 10 seconds, and then incubated at 23° C. for 60 minutes.
(§27) (16) The fluorescence value was measured on the Envision instrument.

[4] = molecular target: T4, PI3Kγ (Homo sapiens, UniProt P48736); experiment: In vitro test of enzyme activity (ADP-Glo lipokinase), PI3K gamma; assay type: biochemical; details: 25 μM ATP, 50 μM PIP2:3PS, 120 min
T4 construct: purchased Millipore 14-558-K
Procedure: as §1, §2, §3, §4, §5, §6, §7, §8, §9, §10, §11, §12, §13, §14, §15, §16, §17, §18, §19, §20, §21, §22, §23, §24, §25, §26, §27

[5] = system: phosphorylation of PI3K downstream protein Akt in MCF7 cells; experiment: In vitro test of cells activity: ELISA of Akt phosphorylation in MCF7 cells; assay type: cell-based; details: 2 h compound, insulin 10 μg/mL stimulation, pAkt ELISA, read-out: MCF7 Cell IC50
Procedure: 2. In vitro test of cells activity
By the method of ELISA, the inhibition level of the test compound on the phosphorylation of PI3K downstream protein Akt in the signaling pathway was determined in MCF7 cells line to reflect the cells activity of the compound.
Cell culture medium: complete cell culture medium (RPMI 1640+10% serum+1% L-glutamine+1% double antibody)
Serum-free medium (without serum, RPMI 1640+1% L-glutamine+1% double antibody)
The detailed procedures areas follows:
(1) MCF7 cells (ATCC® HTB-22™) were inoculated into a 96-well plate at 100 μL of cell complete medium per well (2.5*10^4 cells per well), and the cells were incubated at 37° C. and 5% CO2 for 24 hours.
(2) The complete cell culture medium was replaced with 100 μL of serum-free medium, and incubated for starvation overnight.
(3) The compound was prepared (The initial concentration of the compound is 1 mM, which was subjected to a three-fold dilution in 10 concentrations, and the compound of each concentration was then diluted 100-fold with serum-free medium). 25 μL of the diluted compound was added to the cells orifice plate.
(4) The cells were incubated at 37° C. and 5% CO2 for 2 hours.
(5) The cells in the well plate were stimulated with 10 μg/mL insulin (Sigma # I9278-5 mL), incubated for 30 minutes, and then centrifuged at 1000 rpm for 5 minutes at room temperature.
(6) 250 μL of 1× balanced salt solution (Invitrogen, #14065-056, 4° C., containing 1 mM/L Na3VO4) was added to each well to wash the cells once.
(7) 100 μL of lysis buffer (trimethylolaminomethane hydrochloride, Invitrogen, #15567-1000 ml) was added to each well, shaken at 4° C. for 60 minutes, and then centrifuged at 4000 rpm for 4 minutes.
(8) The following procedures were carried out according to the instructions of ELISA kit (TGR BioSciences # EKT002).

[6] = system: human breast cancer BT-474 cells; experiment: Subcutaneous xenograft tumor model of human breast cancer BT-474 cells; assay type: in vivo, BALB/c nude mouse; details: BT-474 xenograft, 30 mpk
Procedure: 2. In vivo drug-efficacy study
(1) BALB/c nude mouse subcutaneous xenograft tumor model of human breast cancer BT-474 cells
Human breast cancer BT-474 cells (ATCC, Manassas, Va., batch number: HTB-20) were subjected to in vitro monolayer culture, and the culture conditions were: Hybri-Care medium with 10% fetal bovine serum and 1% double antibody, 37° C. and 5% CO2 incubator. The cells were passaged by digestion with trypsin-EDTA twice a week. When the cells saturation reached 80-90%, and the quantity met the requirement, the cells was collected, counted and inoculated.
Tumor cell inoculation (tumor inoculation)
The subcutaneous implantation of the estrogen tablets (Innovative Research, Cat # SE-121, 0.36 mg/60-day release) was carried out one day before cell inoculation. 0.2 mL […] of BT-474 cells (with matrigel, volume 1:1) was subcutaneously inoculated into the right back of each mouse. When the average tumor volume reached 188 mm^3, the administration was started in groups.
Preparation of Test Substance […]
The experimental index was to evaluate whether the tumor growth was inhibited, delayed or cured. The diameter of the tumor was measured with a vernier caliper twice a week. […]
The antitumor efficacy of the compound was evaluated by TGI (%) or relative tumor proliferation rate T/C (%). […]

[7] = In vivo DMPK study in mice after a single administration; design: species or system female Balb/c mice; details: oral, 10 mpk
Procedure: Experimental objective: female Balb/c mice were used as the test animals, and the blood concentration of the compound was determined and the pharmacokinetic behavior was evaluated after a single administration.
Experimental operation: 12 healthy adult female Balb/c mice were selected, 6 for intravenous injection group and 6 for oral administration group. The compound to be tested was mixed with an appropriate amount of intravenous injection group vehicle (10% HP-betaCD: 10% solutol=1:1, pH=8), vortex-mixed and sonicated to prepare a 1.0 mg/mL clear solution, followed by filtration for subsequent use; the vehicle in the oral group was 0.5% MC/0.2% Tw80. After the test compound and the vehicle were mixed, it was vortex-mixed and sonicated to prepare a 1.0 mg/mL homogeneous suspension for subsequent use. After an intravenous administration at a dose of 1 mg/kg or an oral administration at the dose of 2 mg/kg and 10 mg/kg, whole blood of the mice was collected for a certain period of time to prepare plasma. The drug concentration was analyzed by LC-MS/MS method, and Phoenix WinNonlin software was used (Pharsight, USA) to calculate the pharmacokinetic parameters.
Cmax: the highest concentration of the drug in the body; F %: oral bioavailability; Oral DNAUC: area under the dose normalization curve; Vd: apparent volume of distribution; Cl: clearance rate; T1/2: half-life.

[8] = system: PI3K; details: literature statement; cited from earlier work

T2 sequence (P42338 whole entry): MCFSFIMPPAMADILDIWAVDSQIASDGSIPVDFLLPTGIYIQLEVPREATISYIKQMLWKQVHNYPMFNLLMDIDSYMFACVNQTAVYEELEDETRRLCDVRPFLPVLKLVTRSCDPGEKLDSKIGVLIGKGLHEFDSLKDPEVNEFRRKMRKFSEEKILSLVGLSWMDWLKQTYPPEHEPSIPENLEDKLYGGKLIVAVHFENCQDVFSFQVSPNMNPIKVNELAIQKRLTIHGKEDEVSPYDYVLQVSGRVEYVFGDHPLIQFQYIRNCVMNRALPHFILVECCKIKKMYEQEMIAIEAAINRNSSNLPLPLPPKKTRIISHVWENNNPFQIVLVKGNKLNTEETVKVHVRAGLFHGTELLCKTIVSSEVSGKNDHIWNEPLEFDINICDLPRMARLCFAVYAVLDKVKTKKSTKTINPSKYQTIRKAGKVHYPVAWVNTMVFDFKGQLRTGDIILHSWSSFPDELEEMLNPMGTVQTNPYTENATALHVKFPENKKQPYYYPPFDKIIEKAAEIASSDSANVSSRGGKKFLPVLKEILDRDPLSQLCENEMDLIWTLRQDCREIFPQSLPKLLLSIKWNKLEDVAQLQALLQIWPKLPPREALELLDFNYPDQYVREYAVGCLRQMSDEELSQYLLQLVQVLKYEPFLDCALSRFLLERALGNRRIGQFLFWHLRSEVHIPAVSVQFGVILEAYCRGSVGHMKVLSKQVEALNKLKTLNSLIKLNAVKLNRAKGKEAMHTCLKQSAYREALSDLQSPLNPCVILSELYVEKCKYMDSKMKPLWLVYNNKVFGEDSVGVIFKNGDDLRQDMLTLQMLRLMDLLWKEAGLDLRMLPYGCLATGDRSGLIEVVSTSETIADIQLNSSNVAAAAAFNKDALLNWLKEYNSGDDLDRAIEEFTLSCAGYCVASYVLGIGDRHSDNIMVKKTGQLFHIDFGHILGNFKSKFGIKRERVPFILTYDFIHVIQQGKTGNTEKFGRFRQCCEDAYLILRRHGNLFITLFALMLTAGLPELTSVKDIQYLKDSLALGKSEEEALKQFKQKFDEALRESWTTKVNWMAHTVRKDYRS
T2 sequence (P27986 whole entry partner): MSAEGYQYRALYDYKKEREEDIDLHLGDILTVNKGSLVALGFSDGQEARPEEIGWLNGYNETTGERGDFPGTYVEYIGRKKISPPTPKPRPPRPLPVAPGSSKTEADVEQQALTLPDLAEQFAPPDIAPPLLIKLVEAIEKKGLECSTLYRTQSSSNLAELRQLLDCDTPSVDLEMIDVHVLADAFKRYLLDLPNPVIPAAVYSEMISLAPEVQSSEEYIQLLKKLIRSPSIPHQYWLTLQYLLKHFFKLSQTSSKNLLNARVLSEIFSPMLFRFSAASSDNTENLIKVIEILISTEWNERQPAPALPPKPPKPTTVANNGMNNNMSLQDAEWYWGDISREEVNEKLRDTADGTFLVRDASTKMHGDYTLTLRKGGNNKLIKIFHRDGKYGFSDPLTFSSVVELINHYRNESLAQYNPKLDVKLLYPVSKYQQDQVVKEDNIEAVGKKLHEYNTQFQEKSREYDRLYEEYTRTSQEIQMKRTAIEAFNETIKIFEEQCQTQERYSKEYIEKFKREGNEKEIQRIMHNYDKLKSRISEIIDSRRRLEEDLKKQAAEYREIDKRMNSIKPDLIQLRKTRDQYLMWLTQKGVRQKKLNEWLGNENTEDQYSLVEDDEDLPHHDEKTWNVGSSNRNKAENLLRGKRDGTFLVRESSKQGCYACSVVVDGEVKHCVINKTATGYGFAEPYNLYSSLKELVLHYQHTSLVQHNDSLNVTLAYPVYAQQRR
T1 sequence (P42336 whole entry): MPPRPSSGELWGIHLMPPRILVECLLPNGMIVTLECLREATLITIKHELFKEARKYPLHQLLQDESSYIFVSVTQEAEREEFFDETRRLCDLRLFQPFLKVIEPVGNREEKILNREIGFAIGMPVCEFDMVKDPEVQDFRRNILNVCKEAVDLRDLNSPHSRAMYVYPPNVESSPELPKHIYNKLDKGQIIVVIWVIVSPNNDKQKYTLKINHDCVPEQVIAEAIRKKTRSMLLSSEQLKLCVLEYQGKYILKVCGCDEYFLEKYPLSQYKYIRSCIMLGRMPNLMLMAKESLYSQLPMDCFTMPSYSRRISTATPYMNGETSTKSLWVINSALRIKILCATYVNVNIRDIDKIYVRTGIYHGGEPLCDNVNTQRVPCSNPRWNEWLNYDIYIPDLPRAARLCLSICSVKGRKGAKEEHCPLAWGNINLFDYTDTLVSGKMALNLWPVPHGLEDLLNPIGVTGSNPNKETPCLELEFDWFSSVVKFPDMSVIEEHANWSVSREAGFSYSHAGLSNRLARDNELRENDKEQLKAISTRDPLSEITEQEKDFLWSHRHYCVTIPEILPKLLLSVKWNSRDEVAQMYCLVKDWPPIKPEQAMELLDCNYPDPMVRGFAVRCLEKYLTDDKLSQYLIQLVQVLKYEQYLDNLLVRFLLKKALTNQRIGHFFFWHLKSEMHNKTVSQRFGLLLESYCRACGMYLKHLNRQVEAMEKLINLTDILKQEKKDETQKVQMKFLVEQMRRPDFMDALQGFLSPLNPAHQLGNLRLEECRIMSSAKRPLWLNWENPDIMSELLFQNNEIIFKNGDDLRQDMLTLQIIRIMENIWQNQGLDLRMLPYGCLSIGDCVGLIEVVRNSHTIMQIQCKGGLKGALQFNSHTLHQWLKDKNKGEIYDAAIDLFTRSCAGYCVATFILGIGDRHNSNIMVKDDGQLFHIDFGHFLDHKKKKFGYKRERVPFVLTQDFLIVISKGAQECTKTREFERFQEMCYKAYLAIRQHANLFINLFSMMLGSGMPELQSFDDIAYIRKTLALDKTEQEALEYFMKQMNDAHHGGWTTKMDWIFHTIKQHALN
T1 sequence (P27986 whole entry partner): as the sequence (P27986 whole entry partner) above
T3 sequence (O00329 whole entry): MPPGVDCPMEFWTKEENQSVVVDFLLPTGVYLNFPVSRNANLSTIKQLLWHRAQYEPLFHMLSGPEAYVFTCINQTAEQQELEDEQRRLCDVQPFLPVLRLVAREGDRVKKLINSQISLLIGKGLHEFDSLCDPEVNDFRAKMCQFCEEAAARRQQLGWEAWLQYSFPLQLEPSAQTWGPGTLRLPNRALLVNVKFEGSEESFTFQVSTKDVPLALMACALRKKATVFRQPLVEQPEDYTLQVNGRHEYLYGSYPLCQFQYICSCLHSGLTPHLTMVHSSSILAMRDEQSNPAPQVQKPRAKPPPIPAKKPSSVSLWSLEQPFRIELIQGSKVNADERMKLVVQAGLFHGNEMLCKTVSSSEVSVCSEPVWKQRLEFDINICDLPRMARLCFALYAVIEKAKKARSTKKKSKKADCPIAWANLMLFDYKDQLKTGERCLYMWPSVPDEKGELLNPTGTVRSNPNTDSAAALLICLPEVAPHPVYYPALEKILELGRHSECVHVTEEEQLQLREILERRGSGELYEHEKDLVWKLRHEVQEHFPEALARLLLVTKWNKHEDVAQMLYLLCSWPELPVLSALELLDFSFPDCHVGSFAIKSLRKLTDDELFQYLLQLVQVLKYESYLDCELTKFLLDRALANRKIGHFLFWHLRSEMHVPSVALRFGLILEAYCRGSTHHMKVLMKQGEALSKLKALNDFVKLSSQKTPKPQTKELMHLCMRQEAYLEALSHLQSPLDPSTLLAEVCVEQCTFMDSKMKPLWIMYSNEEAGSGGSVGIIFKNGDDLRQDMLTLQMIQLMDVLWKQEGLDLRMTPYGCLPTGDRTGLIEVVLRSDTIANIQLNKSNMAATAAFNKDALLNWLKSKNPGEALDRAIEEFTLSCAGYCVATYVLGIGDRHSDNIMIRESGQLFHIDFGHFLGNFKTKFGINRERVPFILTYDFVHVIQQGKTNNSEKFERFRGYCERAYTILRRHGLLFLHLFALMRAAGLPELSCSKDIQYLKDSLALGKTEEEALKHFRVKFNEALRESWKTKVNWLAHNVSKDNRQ
T3 sequence (P27986 whole entry partner): as the sequence (P27986 whole entry partner) above
T4 sequence (P48736 whole entry): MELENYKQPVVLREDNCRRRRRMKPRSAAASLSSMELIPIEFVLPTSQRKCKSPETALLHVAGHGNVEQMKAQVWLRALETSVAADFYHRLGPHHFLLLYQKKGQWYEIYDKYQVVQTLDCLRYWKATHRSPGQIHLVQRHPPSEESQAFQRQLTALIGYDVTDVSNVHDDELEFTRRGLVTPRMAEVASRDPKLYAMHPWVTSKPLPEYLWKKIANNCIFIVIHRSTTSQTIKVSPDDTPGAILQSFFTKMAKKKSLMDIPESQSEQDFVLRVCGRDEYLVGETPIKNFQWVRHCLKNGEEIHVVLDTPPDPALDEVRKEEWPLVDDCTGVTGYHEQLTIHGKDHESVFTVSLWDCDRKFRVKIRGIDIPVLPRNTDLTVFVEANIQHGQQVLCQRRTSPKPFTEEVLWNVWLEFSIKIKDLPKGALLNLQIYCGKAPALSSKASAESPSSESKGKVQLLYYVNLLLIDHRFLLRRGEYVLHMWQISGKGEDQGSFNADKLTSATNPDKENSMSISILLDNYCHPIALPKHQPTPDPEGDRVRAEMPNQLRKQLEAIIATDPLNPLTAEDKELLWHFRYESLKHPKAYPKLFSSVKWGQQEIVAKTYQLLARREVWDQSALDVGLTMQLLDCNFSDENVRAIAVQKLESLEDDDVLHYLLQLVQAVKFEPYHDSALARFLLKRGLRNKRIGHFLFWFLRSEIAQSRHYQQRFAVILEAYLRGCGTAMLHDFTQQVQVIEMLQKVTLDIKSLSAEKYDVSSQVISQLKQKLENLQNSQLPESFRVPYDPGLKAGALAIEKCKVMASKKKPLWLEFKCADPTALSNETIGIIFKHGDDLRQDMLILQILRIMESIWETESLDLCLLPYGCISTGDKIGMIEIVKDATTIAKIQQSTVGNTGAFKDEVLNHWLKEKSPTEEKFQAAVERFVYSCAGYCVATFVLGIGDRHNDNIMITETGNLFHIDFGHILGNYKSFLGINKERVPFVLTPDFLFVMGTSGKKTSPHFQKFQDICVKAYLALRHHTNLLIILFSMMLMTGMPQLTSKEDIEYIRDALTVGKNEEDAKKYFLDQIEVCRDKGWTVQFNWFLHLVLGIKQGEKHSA

Row | IC50 [1] | IC50 [2] | IC50 [3] | IC50 [4] | IC50 [5] | Cmax [7] | Oral DNAUC (area under the dose normalization curve) [7] | IC50 ([5]; Homo sapiens, MCF7, 2 h) | Structure (SMILES) | TGI % [6] | inhibitory effect on PI3K [8]
1 | 7.06 nM | 720 nM | 47.4 nM | 48.3 nM | 9.04 nM | 8.34 µM | 882.0 nM · h/mpk | – | CNC(=O)C(C)Cn1cnc2ccc(-c3cnc(OC)c(NS(=O)(=O)c4ccc(F)cc4C)c3)cc2c1=O (single isomer, unassigned) [WX181] | – | –
2 | 0.95 nM | 166 nM | 6.34 nM | 8.21 nM | 51.4 nM | 25.9 µM | 4867 nM · h/mpk | – | CNC(=O)C(C)Cn1cnc2ccc(-c3cnc(OC)c(NS(=O)(=O)c4cc(Cl)ccc4Cl)c3)cc2c1=O (single isomer, unassigned) [WX183] | – | –
3 | 2.22 nM | 278 nM | 18.8 nM | 31.4 nM | 17.2 nM | 8.41 µM | 734 nM · h/mpk | – | CNC(=O)C(C)Cn1cnc2ccc(-c3cnc(OC)c(NS(=O)(=O)c4cc(C)ccc4Cl)c3)cc2c1=O (single isomer, unassigned) [WX214] | – | –
4 | 1.8 nM | 361 nM | 20.7 nM | 29.7 nM | 12.6 nM | 6.88 µM | 1300 nM · h/mpk | – | CNC(=O)C(C)Cn1cnc2ccc(-c3cnc(OC)c(NS(=O)(=O)c4cc(Cl)ccc4C)c3)cc2c1=O (single isomer, unassigned) [WX222] | – | –

Continued, molecule first:

Row | Structure (SMILES) | IC50 [1] | IC50 [2] | IC50 [3] | IC50 [4] | IC50 [5] | Cmax [7] | Oral DNAUC (area under the dose normalization curve) [7] | IC50 ([5]; Homo sapiens, MCF7, 2 h) | TGI % [6] | inhibitory effect on PI3K [8]
5 | COc1ncc(-c2ccc3ncn(CC(C)C(=O)NCC(F)(F)F)c(=O)c3c2)cc1NS(=O)(=O)c1ccc(F)cc1Cl (single isomer, unassigned) [WX058] | 5.49 nM | 589 nM | 18.7 nM | 54.2 nM | 56.1 nM | – | – | – | 60.0% | –
6 | COc1ncc(-c2ccc3ncn(CCN(C)C)c(=O)c3c2)cc1NS(=O)(=O)c1ccc(F)cc1 [R011, reference compound] | 74.5 nM | 168 nM | – | – | – | – | – | 230 nM | – | good inhibitory effect
7 | CCN(CC)CCn1cnc2ccc(-c3cnc(OC)c(NS(=O)(=O)c4ccc(F)cc4F)c3)cc2c1=O [R012, reference compound] | 13.9 nM | 67.9 nM | – | – | – | – | – | > 1000 nM | – | good inhibitory effect
